What was measured:
Botrytis cinerea [1] = assay: PDA plate inhibition, caprylic acid and organic acids (Example 13); type: cell-based; details: PDA plates
White mold = assay: as above; type: cell-based; details: PDA plates
Botrytis cinerea [2] = assay: Inhibition of fungal infections on fresh raspberries (Example 9); type: in vivo; details: raspberries (Heritage), 60 s dip
Late blight = type: cell-based; details: PDA plates; day 2 after inoculum; control plate = 100%
Septoria = details: PDA plates, control plate = 100%

O=C(O)CC(O)(CC(=O)O)C(=O)O [0.010% citric acid, citric acid]
Inhibition (%) of Botrytis cinerea (Botrytis cinerea [1]): 0% | Inhibition (%) of white mold (White mold): 0%

O=C(O)CCC(=O)O [0.010% succinic acid, succinic acid]
Inhibition (%) of Botrytis cinerea (Botrytis cinerea [1]): 0% | Inhibition (%) of white mold (White mold): 0%

O=C(O)C(O)C(O)C(=O)O (stereo not shown) [0.75% tartaric acid, tartaric acid]
Infected berries (% of total) Day 2 (Botrytis cinerea [2]; day 2): 31% | Infected berries (% of total) Day 3 (Botrytis cinerea [2]; day 3): 58% | Infected berries (% of total) Day 4 (Botrytis cinerea [2]; day 4): 86% | Infected berries (% of total) Day 6 (Botrytis cinerea [2]; day 6): 92% | Infected berries (% of total) Day 8 (Botrytis cinerea [2]; day 8): 92% | Infected berries (% of total) Day 10 (Botrytis cinerea [2]; day 10): 92% | Infected berries (% of total) Day 12 (Botrytis cinerea [2]; day 12): 92%

O=C(O)CO [glycolic acid]
Measurement of fungal growth, Late blight Day 2 (Late blight): 79% | Inhibition (%) of Botrytis cinerea (Botrytis cinerea [1]): 0% | Inhibition (%) of white mold (White mold): 0% | Measurement of fungal growth, Septoria Day 2 (Septoria; day 2 after inoculum): 80% | Measurement of fungal growth, Septoria Day 3 (Septoria; day 3 after inoculum): 90%

From US7741244B2, “Fungicide compositions” (priority 2002, dated 2010)
